Assay results reported in ChEMBL document CHEMBL4507293 (2021).

Experiments:
[1] = target: AP2-associated protein kinase 1 (Homo sapiens) (UniProt Q2M2I8); conditions: Compound concentration 100.0 nM
[2] = target: Tyrosine-protein kinase ABL1 (Homo sapiens) (UniProt P00519); conditions: Compound concentration 100.0 nM
[3] = tested on: ALK tyrosine kinase receptor (Homo sapiens), Q9UM73 [L1196M]; conditions: Compound concentration 100.0 nM
[4] = target: Calcium/calmodulin-dependent protein kinase type 1B (Homo sapiens) (UniProt Q6P2M8); conditions: Compound concentration 100.0 nM
[5] = target: Calcium/calmodulin-dependent protein kinase kinase 2 (Homo sapiens) (UniProt Q96RR4); conditions: Compound concentration 100.0 nM
[6] = target: Cyclin-dependent kinase 5 (Homo sapiens) (UniProt Q00535); conditions: Compound concentration 100.0 nM
[7] = target: Tyrosine-protein kinase CSK (Homo sapiens) (UniProt P41240); conditions: Compound concentration 100.0 nM
[8] = target: Death-associated protein kinase 1 (Homo sapiens) (UniProt P53355); conditions: Compound concentration 100.0 nM
[9] = target: Myotonin-protein kinase (Homo sapiens) (UniProt Q09013); conditions: Compound concentration 100.0 nM
[10] = target: Epidermal growth factor receptor (Homo sapiens) (UniProt P00533); conditions: Compound concentration 100.0 nM
[11] = target: Ephrin type-A receptor 3 (Homo sapiens) (UniProt P29320); conditions: Compound concentration 100.0 nM
[12] = target: Fibroblast growth factor receptor 1 (Homo sapiens) (UniProt P11362); conditions: Compound concentration 100.0 nM
[13] = tested on: eIF-2-alpha kinase GCN2 (Homo sapiens), Q9P2K8 [S808G]; conditions: Compound concentration 100.0 nM
[14] = target: G protein-coupled receptor kinase 3 (Homo sapiens) (UniProt P35626); conditions: Compound concentration 100.0 nM
[15] = target: Glycogen synthase kinase-3 alpha (Homo sapiens) (UniProt P49840); conditions: Compound concentration 100.0 nM
[16] = target: Glycogen synthase kinase-3 beta (Homo sapiens) (UniProt P49841); conditions: Compound concentration 100.0 nM
[17] = target: Hormonally up-regulated neu tumor-associated kinase (Homo sapiens) (UniProt P57058); conditions: Compound concentration 100.0 nM
[18] = target: Interleukin-1 receptor-associated kinase 1 (Homo sapiens) (UniProt P51617); conditions: Compound concentration 100.0 nM
[19] = target: Serine/threonine-protein kinase MARK2 (Homo sapiens) (UniProt Q7KZI7); conditions: Compound concentration 100.0 nM
[20] = target: Myosin light chain kinase, smooth muscle (Homo sapiens) (UniProt Q15746); conditions: Compound concentration 100.0 nM
[21] = target: Serine/threonine-protein kinase Nek10 (Homo sapiens) (UniProt Q6ZWH5); conditions: Compound concentration 100.0 nM
[22] = target: Serine/threonine-protein kinase Nek7 (Homo sapiens) (UniProt Q8TDX7); conditions: Compound concentration 100.0 nM
[23] = target: Serine/threonine-protein kinase OSR1 (Homo sapiens) (UniProt O95747); conditions: Compound concentration 100.0 nM
[24] = target: 3-phosphoinositide-dependent protein kinase 1 (Homo sapiens) (UniProt O15530); conditions: Compound concentration 100.0 nM
[25] = target: cAMP-dependent protein kinase catalytic subunit beta (Homo sapiens) (UniProt P22694); conditions: Compound concentration 100.0 nM
[26] = tested on: Proto-oncogene tyrosine-protein kinase receptor Ret (Homo sapiens), P07949 [V804M]; conditions: Compound concentration 100.0 nM
[27] = target: Ribosomal protein S6 kinase alpha-4 (Homo sapiens) (UniProt O75676); conditions: Compound concentration 100.0 nM
[28] = target: Ribosomal protein S6 kinase alpha-1 (Homo sapiens) (UniProt Q15418); conditions: Compound concentration 100.0 nM
[29] = target: Ribosomal protein S6 kinase beta-1 (Homo sapiens) (UniProt P23443); conditions: Compound concentration 100.0 nM
[30] = target: Serine/threonine-protein kinase 35 (Homo sapiens) (UniProt Q8TDR2); conditions: Compound concentration 100.0 nM
[31] = target: Serine/threonine-protein kinase TNNI3K (Homo sapiens) (UniProt Q59H18); conditions: Compound concentration 100.0 nM
[32] = target: Testis-specific serine/threonine-protein kinase 3 (Homo sapiens) (UniProt Q96PN8); conditions: Compound concentration 100.0 nM
[33] = target: Delta-type opioid receptor (Homo sapiens) (UniProt P41143); conditions: Compound concentration 10.0 uM
[34] = target: GABA-A receptor; anion channel (Rattus norvegicus) (UniProt O09028+P15431+P18506+P18508+P19969+P20236+P23574+P23576+P28471+P28473+P30191+P62813+P63079+P63138+Q91ZM7+Q9ES14); conditions: Compound concentration 10.0 uM
[35] = target: Histamine H3 receptor (Homo sapiens) (UniProt Q9Y5N1); conditions: Compound concentration 10.0 uM
[36] = target: T1, Alpha-2B adrenergic receptor (Homo sapiens) (UniProt P18089); conditions: Compound concentration 10.0 uM
T1 sequence (whole entry): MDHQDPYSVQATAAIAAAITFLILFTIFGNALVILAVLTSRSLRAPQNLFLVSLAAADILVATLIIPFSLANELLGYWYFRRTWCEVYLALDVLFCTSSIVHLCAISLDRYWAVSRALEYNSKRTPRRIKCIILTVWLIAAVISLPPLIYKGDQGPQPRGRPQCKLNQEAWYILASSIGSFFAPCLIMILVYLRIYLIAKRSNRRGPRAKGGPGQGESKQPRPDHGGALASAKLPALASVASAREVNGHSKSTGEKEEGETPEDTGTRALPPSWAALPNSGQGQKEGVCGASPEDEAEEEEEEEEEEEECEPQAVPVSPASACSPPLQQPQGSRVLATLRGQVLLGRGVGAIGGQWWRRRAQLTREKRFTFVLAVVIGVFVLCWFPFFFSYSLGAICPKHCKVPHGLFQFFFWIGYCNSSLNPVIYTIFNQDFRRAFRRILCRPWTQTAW

Rattus norvegicus = species: Rattus norvegicus; conditions: Compound concentration 10.0 uM
[37] = target: Sigma non-opioid intracellular receptor 1 (Homo sapiens) (UniProt Q99720); conditions: Compound concentration 10.0 uM

AP2-associated protein kinase 1 (Homo sapiens), sequence (Q2M2I8 whole entry, looked up): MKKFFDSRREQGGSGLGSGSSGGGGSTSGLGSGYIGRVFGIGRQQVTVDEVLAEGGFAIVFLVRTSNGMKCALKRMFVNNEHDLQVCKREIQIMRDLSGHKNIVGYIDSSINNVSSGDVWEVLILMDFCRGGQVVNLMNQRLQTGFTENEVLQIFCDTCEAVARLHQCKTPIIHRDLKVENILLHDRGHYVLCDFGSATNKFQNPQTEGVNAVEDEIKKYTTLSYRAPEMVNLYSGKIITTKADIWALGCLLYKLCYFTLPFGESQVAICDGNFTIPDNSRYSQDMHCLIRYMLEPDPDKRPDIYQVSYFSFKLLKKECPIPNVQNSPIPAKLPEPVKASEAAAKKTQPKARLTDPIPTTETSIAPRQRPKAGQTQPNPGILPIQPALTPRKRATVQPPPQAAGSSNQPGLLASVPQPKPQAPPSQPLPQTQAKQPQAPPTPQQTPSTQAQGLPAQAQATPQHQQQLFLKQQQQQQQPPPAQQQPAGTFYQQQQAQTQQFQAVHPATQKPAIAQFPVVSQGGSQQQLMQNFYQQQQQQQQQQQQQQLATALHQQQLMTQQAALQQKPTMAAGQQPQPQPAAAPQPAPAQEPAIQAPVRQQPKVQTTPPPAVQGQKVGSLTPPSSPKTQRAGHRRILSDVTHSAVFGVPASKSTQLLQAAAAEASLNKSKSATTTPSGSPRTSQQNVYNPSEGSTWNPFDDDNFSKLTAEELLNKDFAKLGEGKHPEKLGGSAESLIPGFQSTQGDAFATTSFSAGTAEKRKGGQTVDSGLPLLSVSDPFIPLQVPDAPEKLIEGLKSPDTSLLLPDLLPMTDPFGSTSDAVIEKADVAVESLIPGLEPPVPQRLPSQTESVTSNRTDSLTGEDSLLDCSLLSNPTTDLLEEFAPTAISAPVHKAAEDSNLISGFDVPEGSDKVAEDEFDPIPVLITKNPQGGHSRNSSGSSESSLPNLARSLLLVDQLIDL
Ephrin type-A receptor 3 (Homo sapiens), sequence (P29320 whole entry): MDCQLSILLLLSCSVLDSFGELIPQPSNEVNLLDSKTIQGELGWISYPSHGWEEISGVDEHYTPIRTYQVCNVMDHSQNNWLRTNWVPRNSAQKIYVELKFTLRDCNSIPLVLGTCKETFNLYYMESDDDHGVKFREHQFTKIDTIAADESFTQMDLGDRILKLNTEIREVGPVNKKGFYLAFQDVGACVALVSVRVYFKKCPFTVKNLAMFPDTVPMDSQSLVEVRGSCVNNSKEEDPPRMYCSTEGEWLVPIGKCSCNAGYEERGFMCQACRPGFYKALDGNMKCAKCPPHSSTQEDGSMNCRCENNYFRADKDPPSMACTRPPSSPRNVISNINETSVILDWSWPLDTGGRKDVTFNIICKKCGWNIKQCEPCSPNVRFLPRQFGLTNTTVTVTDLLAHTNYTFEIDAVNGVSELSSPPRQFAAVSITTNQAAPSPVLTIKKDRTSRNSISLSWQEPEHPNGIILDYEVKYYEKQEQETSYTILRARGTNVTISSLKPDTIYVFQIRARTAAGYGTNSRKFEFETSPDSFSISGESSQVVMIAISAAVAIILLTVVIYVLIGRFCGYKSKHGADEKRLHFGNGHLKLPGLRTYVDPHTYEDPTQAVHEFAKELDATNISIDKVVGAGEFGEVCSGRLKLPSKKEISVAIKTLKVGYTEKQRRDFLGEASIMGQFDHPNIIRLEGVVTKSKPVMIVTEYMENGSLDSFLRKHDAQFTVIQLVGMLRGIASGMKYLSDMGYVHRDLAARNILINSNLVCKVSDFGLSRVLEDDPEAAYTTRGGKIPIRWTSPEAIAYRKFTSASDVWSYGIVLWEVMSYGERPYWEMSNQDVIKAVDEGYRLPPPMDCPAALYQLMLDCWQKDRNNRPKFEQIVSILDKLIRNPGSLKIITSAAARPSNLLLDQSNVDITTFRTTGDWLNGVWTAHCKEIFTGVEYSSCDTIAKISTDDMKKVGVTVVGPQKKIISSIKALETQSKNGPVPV
Serine/threonine-protein kinase TNNI3K (Homo sapiens), sequence (Q59H18 whole entry): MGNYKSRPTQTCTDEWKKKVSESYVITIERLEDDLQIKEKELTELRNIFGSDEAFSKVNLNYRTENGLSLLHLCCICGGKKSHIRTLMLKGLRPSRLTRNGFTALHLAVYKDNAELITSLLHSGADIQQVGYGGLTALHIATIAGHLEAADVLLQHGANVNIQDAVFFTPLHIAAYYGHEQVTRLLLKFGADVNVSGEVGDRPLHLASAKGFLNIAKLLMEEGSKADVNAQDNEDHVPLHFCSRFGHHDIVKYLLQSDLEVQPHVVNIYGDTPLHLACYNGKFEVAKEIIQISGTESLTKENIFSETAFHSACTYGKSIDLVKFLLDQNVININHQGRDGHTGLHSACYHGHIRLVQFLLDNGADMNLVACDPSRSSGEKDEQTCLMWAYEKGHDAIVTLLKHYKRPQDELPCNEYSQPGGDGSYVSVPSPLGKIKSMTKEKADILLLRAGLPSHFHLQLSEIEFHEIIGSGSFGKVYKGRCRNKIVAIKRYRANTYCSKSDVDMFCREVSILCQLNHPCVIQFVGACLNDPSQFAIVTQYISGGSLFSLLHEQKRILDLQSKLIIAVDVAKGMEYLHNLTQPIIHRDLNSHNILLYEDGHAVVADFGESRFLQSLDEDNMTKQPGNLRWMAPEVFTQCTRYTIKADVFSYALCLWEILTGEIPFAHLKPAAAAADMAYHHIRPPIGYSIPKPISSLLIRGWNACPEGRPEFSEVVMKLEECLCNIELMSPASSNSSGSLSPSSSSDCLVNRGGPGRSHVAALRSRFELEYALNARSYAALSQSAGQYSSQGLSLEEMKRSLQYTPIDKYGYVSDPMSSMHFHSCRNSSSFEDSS
Interleukin-1 receptor-associated kinase 1 (Homo sapiens), sequence (P51617 whole entry, looked up): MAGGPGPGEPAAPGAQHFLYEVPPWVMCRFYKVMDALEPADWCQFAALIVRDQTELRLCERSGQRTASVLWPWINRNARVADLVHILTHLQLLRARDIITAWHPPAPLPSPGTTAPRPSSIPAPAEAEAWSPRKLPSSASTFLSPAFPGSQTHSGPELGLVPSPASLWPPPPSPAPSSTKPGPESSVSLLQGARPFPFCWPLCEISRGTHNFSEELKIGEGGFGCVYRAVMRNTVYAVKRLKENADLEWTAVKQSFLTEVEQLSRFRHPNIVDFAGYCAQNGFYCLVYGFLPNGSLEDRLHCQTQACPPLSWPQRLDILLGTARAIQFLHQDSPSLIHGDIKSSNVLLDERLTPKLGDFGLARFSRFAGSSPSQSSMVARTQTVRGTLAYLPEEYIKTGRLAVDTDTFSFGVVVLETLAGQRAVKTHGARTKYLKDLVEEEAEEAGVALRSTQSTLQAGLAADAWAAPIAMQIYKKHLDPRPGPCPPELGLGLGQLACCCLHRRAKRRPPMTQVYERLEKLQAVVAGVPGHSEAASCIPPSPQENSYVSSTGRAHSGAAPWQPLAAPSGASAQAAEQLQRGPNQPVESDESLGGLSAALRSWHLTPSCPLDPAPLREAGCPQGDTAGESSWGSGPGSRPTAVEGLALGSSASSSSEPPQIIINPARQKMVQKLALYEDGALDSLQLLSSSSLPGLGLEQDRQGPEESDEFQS
Delta-type opioid receptor (Homo sapiens), sequence (P41143 whole entry): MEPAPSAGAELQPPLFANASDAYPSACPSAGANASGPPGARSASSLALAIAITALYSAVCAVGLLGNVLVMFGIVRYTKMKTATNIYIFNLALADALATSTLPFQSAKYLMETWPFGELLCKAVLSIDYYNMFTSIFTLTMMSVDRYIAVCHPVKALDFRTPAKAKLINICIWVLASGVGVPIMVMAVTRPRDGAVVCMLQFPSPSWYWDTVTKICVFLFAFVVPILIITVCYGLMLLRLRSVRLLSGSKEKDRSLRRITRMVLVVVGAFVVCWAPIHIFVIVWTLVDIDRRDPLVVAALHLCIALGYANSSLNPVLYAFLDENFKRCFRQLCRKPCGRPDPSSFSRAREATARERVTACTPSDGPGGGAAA
Glycogen synthase kinase-3 beta (Homo sapiens), sequence (P49841 whole entry, looked up): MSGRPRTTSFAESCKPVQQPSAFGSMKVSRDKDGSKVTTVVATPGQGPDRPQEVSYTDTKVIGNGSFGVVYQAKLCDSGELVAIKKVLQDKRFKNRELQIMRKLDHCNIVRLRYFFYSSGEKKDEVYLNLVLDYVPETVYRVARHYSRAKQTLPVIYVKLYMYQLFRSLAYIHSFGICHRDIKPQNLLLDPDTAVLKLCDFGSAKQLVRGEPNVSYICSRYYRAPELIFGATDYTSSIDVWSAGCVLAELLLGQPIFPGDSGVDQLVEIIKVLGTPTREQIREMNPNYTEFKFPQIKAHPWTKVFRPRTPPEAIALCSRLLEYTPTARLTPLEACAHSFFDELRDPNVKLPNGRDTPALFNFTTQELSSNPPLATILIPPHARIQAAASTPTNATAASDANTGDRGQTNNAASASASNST
Cyclin-dependent kinase 5 (Homo sapiens), sequence (Q00535 whole entry, looked up): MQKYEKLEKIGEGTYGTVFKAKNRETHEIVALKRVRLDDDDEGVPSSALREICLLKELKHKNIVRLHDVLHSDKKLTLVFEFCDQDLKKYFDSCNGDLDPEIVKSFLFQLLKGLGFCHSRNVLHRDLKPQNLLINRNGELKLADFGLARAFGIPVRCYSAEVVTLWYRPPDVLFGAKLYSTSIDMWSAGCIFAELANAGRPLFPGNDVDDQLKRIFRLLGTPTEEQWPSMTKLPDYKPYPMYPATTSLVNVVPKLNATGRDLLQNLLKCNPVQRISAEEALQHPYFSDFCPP
Serine/threonine-protein kinase Nek7 (Homo sapiens), sequence (Q8TDX7 whole entry, looked up): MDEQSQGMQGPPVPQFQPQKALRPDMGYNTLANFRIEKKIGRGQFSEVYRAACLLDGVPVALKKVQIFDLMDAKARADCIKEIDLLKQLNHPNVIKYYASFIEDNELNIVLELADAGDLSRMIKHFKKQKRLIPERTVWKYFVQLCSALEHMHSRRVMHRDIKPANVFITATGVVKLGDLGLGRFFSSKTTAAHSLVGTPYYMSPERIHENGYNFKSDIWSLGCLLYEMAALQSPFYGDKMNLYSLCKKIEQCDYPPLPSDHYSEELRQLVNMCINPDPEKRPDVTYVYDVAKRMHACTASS

COCCOc1nc(-c2ccc(Cl)nc2)nc2c1CN(C(=O)c1ncn3ccccc13)CC2 [THPP-1]
inactive: residual activity [1] 100% | residual activity [2] 68% | residual activity [3] 100% | residual activity [4] 100% | residual activity [5] 100% | residual activity [6] 100% | residual activity [7] 100% | residual activity [8] 100% | residual activity [9] 72% | residual activity [10] 88% | residual activity [11] 96% | residual activity [12] 100% | residual activity [13] 100% | residual activity [14] 100% | residual activity [15] 100% | residual activity [16] 100% | residual activity [17] 78% | residual activity [18] 100% | residual activity [19] 100% | residual activity [20] 70% | residual activity [21] 100% | residual activity [22] 100% | residual activity [23] 100% | residual activity [24] 90% | residual activity [25] 73% | residual activity [26] 89% | residual activity [27] 100% | residual activity [28] 100% | residual activity [29] 100% | residual activity [30] 100% | residual activity [31] 100% | residual activity [32] 100% | inhibition [33] 6.52% | inhibition [34] 15% | inhibition [35] 5.45% | inhibition [36] -2.32% | inhibition (Rattus norvegicus) 26.1% | inhibition [37] 38.1%

CC(C)CC(=O)N1CCc2nc(-c3ccc(Br)cc3)nc(N(C)Cc3ccccc3)c2C1 [THPP-1-NC]
inactive: residual activity [1] 100% | residual activity [2] 66% | residual activity [3] 100% | residual activity [4] 100% | residual activity [5] 100% | residual activity [6] 100% | residual activity [7] 100% | residual activity [8] 100% | residual activity [9] 87% | residual activity [10] 100% | residual activity [11] 100% | residual activity [12] 100% | residual activity [13] 100% | residual activity [14] 100% | residual activity [15] 100% | residual activity [16] 100% | residual activity [17] 86% | residual activity [18] 100% | residual activity [19] 100% | residual activity [20] 86% | residual activity [21] 100% | residual activity [22] 100% | residual activity [23] 100% | residual activity [24] 100% | residual activity [25] 82% | residual activity [26] 82% | residual activity [27] 100% | residual activity [28] 93% | residual activity [29] 100% | residual activity [30] 96% | residual activity [31] 100% | residual activity [32] 100% | inhibition [33] 8.22% | inhibition [34] -4.66% | inhibition [35] 18.3% | inhibition [36] 29% | inhibition (Rattus norvegicus) 41% | inhibition [37] 49.4%
